# Key:
# Format in all cases: in vivo, human
# [1] = system: unresectable or metastatic solid tumors; assay: Efficacy of Compound A salt monotherapy, best response by irRECIST; settings: for patients with clinical benefit (irPR or irSD>18 weeks): 16 patients
# Procedure: (§1) A treatment cycle is 21 days with 3 weekly infusions on days 1, 8, and 15.
# Response was defined by best overall response—immune-related partial response (irPR), immune-related stable disease (irSD) with study duration over or under 18 weeks, and unconfirmed immune-related progressive disease (uirPD). Clinical benefit was defined as either partial response (irPR) or irSD >18 weeks. IP-10 cytokine induction levels of 32 patients evaluable for efficacy, were analyzed with respect to dosage in Cycle 1.
# advanced solid cancers [2] = assay: Clinical benefit (RECIST 1.1) versus AUC/Cmax, Compound A in combination with pembrolizumab; settings: combination with pembrolizumab
# Source text: (§2) Clinical benefit was defined as radiographic complete response, partial response or stable disease >18 weeks based on Response Evaluation Criteria in Solid Tumors (RECIST) version 1.1.
# [3] = as above; settings: human, combination with anti-PD-1 mAb (pembrolizumab)
# Source text: as §2
# advanced solid cancers [4] = assay: Clinical benefit (RECIST 1.1) versus AUC/Cmax, Compound A monotherapy
# Source text: as §2
# [5] = as above; settings: human, plasma, intravenous, Cmax of Compound A free base associated with greater likelihood of clinical benefit
# Source text: as §2
# [6] = Plasma IP-10 induction from baseline (MSD cytokine assay); settings: human, plasma, intravenous; read-out: minimum Cmax required to induce enough IP-10 that results in clinical benefit
# Procedure: (§3) Pharmacodynamic analysis of Compound A included cytokine quantification and whole-blood RNA transcriptional profiling. Collected plasma samples were quantified for cytokine biomarkers implicated in inflammatory responses, immune system regulation, and other biological processes. Assays for cytokine quantification were performed by Frontage Laboratories, Inc. utilizing Meso Scale Discovery (MSD) V-PLEX and U-PLEX plates pre-coated with capture antibodies for IL-5, IL-17A, IFN-γ, IL-2, IL-6, IL-8, IL-10, IL-12p70, TNF-α, IFN-α, IFN-β, and IP-10. Plasma samples were added directly to the plate to allow the analytes in the samples to bind to the capture antibodies. Electrochemiluminiscent label (MSD SOLFO-TAG™)-conjugated detection antibodies were then added to visualize the plates by a MSD plate reader. The luminescence intensity was measured to quantify the amount of captured analytes (or cytokine levels) in each sample. […] Plasma samples were collected at Cycle 1, Cycle 3, and Cycle 6. Of the cytokines quantified, IP-10, IFN-γ, IL-6, IL-8, IL-10, and TNF-α had detectable levels. […] The greater peak cytokine level from either Cycle 1 Days 1 or 8 were selected for the analysis to be inclusive of all subjects. […] Response was defined by best overall response—immune-related partial response (irPR), immune-related stable disease (irSD) with study duration over or under 18 weeks, and unconfirmed immune-related progressive disease (uirPD). Clinical benefit was defined as either partial response (irPR) or irSD >18 weeks. […] For example, patient A dosed with dose level 2 with slower metabolism may have higher AUC and/or Cmax than patient B who was dosed with dose level 3, as a result patient A may produce higher level of IP-10 induction from baseline.
# IP-10 = assay: as above; settings: for mean IP-10 induction level from baseline: 16 patients, Cycle 1
# Procedure: as §3
# advanced solid cancers [7] = assay: Clinical benefit (RECIST 1.1) versus AUC/Cmax, Compound A in combination with atezolizumab; settings: combination with atezolizumab
# Source text: as §2
# [8] = as above; settings: human, plasma, combination with anti-PD-L1 mAb (atezolizumab)
# Source text: as §2
# [9] = Phase 1 safety, drug-related adverse events, Compound A monotherapy
# Source text: Toxicities and adverse events are sometimes graded according to a 5-point scale. A grade 1 or mild toxicity is asymptomatic or induces only mild symptoms; may be characterized by clinical or diagnostic observations only; and intervention is not indicated. A grade 2 or moderate toxicity may impair activities of daily living (such as preparing meals, shopping, managing money, using the telephone, etc.) but only minimal, local, or non-invasive interventions are indicated. Grade 3 toxicities are medically significant but not immediately life-threatening; hospitalization or prolongation of hospitalization is indicated; activities of daily living related to self-care (such as bathing, dressing and undressing, feeding oneself, using the toilet, taking medications, and not being bedridden) may be impaired. Grade 4 toxicities are life-threatening and urgent intervention is indicated. Grade 5 toxicity produces an adverse event-related death.
# as §1
# Most common drug-related AE's were associated with immune activation.
# [10] = Phase 1 pharmacokinetics: Compound A free base in plasma after intravenous infusion
# Source text: as §1
# The Mosteller Formula was used: BSA=√height (cm)×weight (kg)/3600.
# IFN-γ = assay: Plasma IFN-γ induction from baseline (MSD cytokine assay); settings: monotherapy, data not shown
# Procedure: Pharmacodynamic analysis of Compound A included cytokine quantification and whole-blood RNA transcriptional profiling.
# Collected plasma samples were quantified for cytokine biomarkers implicated in inflammatory responses, immune system regulation, and other biological processes. Assays for cytokine quantification were performed by Frontage Laboratories, Inc. utilizing Meso Scale Discovery (MSD) V-PLEX and U-PLEX plates pre-coated with capture antibodies for IL-5, IL-17A, IFN-γ, IL-2, IL-6, IL-8, IL-10, IL-12p70, TNF-α, IFN-α, IFN-β, and IP-10. Plasma samples were added directly to the plate to allow the analytes in the samples to bind to the capture antibodies. Electrochemiluminiscent label (MSD SOLFO-TAG™)-conjugated detection antibodies were then added to visualize the plates by a MSD plate reader. The luminescence intensity was measured to quantify the amount of captured analytes (or cytokine levels) in each sample.
# Plasma samples were collected at Cycle 1, Cycle 3, and Cycle 6. Of the cytokines quantified, IP-10, IFN-γ, IL-6, IL-8, IL-10, and TNF-α had detectable levels. […] The greater peak cytokine level from either Cycle 1 Days 1 or 8 were selected for the analysis to be inclusive of all subjects.
# [11] = IP-10 induction, >5-fold increase (n = 17)
# [12] = No IP-10 induction, <5-fold increase (n = 19)
structure (smiles),measurement,setting,value
"CCOCc1nc2c(N)nc3ccccc3c2n1CC(C)(C)O [Compound A, 1-[4-amino-2-(ethoxymethyl)imidazo[4,5-c]quinolin-1-yl]-2-methylpropan-2-ol]",patients with clinical benefit (irPR or irSD>18 weeks),[1]; high AUC group (above 2.09 ng/mL*Day),7 patients
same,patients with clinical benefit (irPR or irSD>18 weeks),[1]; high Cmax group (above 9.4 ng/mL),7 patients
same,"partial response [PR], number of subjects","[1]; irRECIST, best response",2
same,"stable disease [SD], number of subjects","[1]; irRECIST, best response",18
same,disease control rate,"[1]; irRECIST, partial response + stable disease",63%
same,patients with clinical benefit (irPR or irSD>18 weeks),[1]; low AUC group (below 2.09 ng/mL*Day),two
same,patients with clinical benefit (irPR or irSD>18 weeks),[1]; low Cmax group (below 9.4 ng/mL),two
same,progressive disease (PD) as best response,[1]; monotherapy,38%
same,"progressive disease (PD) as best response, number",[1]; monotherapy,12 subjects
same,subjects with prolonged disease control (study duration >18 weeks),[1]; monotherapy,22%
same,"subjects with prolonged disease control (study duration >18 weeks), number",[1]; monotherapy,7 subjects
same,longest study duration,[1]; one subject on monotherapy,68 weeks
same,patients with clinical benefit,"advanced solid cancers [2]; high AUC group (above 2.19 ng/mL*Day), 15 patients",47%
same,patients with clinical benefit,"advanced solid cancers [2]; high Cmax group (above 7.65 ng/mL), 16 patients",44%
same,patients with clinical benefit,"advanced solid cancers [2]; low AUC group (below 2.19 ng/mL*Day), 11 patients",27%
same,patients with clinical benefit,"advanced solid cancers [2]; low Cmax group (below 7.65 ng/mL), 10 patients",30%
same,Cmax,"[3]; in vivo, intravenous",≥ 7.65 ng/mL
same,Cmax,[3]; plasma,7.6 ng/mL
same,patients with clinical benefit,"advanced solid cancers [4]; high AUC group (above 3.42 ng/mL*Day), 14 patients",50%
same,patients with clinical benefit,"advanced solid cancers [4]; high Cmax group (above 8.38 ng/mL), 15 patients",47%
same,patients with clinical benefit,"advanced solid cancers [4]; low AUC group (below 3.42 ng/mL*Day), 18 patients",11%
same,patients with clinical benefit,"advanced solid cancers [4]; low Cmax group (below 8.38 ng/mL), 17 patients",12%
same,Cmax,[5],≥ 8.38 ng/mL
same,Cmax,[6],≥ 9.4 ng/mL
same,mean IP-10 induction level from baseline,IP-10; high AUC group (AUC above 2.09 ng/mL*Day),27.2 fold
same,mean IP-10 induction level from baseline,IP-10; high Cmax group (Cmax above 9.4 ng/mL),31.9 fold
same,mean IP-10 induction level from baseline,IP-10; low AUC group (AUC below 2.09 ng/mL*Day),3.68 fold
same,mean IP-10 induction level from baseline,IP-10; low Cmax group (Cmax below 9.4 ng/mL),5.09 fold
same,effect on blood IP-10 levels,"IP-10; monotherapy, FIG. 2A",significantly increased
same,patients with clinical benefit,"advanced solid cancers [7]; high AUC group (above 2.14 ng/mL*Day), 10 patients",50%
same,patients with clinical benefit,"advanced solid cancers [7]; high Cmax group (above 10.5 ng/mL), 10 patients",40%
same,patients with clinical benefit,"advanced solid cancers [7]; low AUC group (below 2.14 ng/mL*Day), 15 patients",20%
same,patients with clinical benefit,"advanced solid cancers [7]; low Cmax group (below 10.5 ng/mL), 15 patients",27%
same,Cmax,[8]; intravenous,≥ 10.5 ng/mL
same,Cmax,[8],10.5 ng/mL
same,dose dependence of toxicity,[9]; 0.30-0.90 mg/m^2,no apparent dose-dependent increase in toxicity
same,"Grade 1 AE, subjects (%)",[9]; [11],4 (24%)
same,"Grade 2 AE, subjects (%)",[9]; [11],7 (41%)
same,"Grade 3 AE, subjects (%)",[9]; [11],2 (12%)
same,"No AE, subjects (%)",[9]; [11],4 (24%)
same,"Grade 1 AE, subjects (%)",[9]; [12],6 (32%)
same,"Grade 2 AE, subjects (%)",[9]; [12],5 (26%)
same,"Grade 3 AE, subjects (%)",[9]; [12],1 (5%)
same,"No AE, subjects (%)",[9]; [12],7 (37%)
same,Grade 4 or 5 adverse events,"[9]; monotherapy, 36 subjects",no Grade 4 or 5 adverse events
same,overall tolerability,"[9]; monotherapy, 36 subjects",well-tolerated
same,subjects without any drug-related AE,"[9]; monotherapy, of 36 subjects",31%
same,"subjects without any drug-related AE, number","[9]; monotherapy, of 36 subjects",11
same,Compound A free base exposure versus dose,[10]; five escalating dosages 0.30-0.90 mg/m^2 intravenously,dose-dependent increase
same,half-life,"[10]; human, plasma, iv",~4 h
same,effect on blood IFN-γ levels,IFN-γ,significantly increased

# Source: patent US20230346775A1, “CANCER TREATMENT WITH TLR AGONIST” (BIRDIE BIOPHARMACEUTICALS, INC., priority 2020, published 2023)
